O=C(O)Cc1ccccc1[N+](=O)[O-]
solubility (mole fraction)
Conditions | 283.15 K | 288.15 K | 293.15 K | 298.15 K | 303.15 K | 308.15 K | 313.15 K | 318.15 K | 323.15 K | 328.15 K
in 1,4-dioxane | – | 0.0461 | 0.0535 | 0.0618 | 0.0732 | 0.0853 | 0.1 | 0.118 | 0.139 | 0.162
in DMF | 0.18 | 0.202 | 0.222 | 0.249 | 0.277 | 0.308 | 0.338 | 0.371 | 0.406 | 0.445
in acetonitrile | 0.0143 | 0.016 | 0.0184 | 0.0219 | 0.0255 | 0.0304 | 0.0365 | 0.0437 | 0.0515 | 0.0604
in cyclohexane | 8.88e-06 | 1.22e-05 | 1.65e-05 | 2.23e-05 | 2.94e-05 | 3.79e-05 | 4.9e-05 | 6.35e-05 | 8.34e-05 | 0.000108
in ethanol | 0.0273 | 0.0317 | 0.0367 | 0.0432 | 0.0516 | 0.0627 | 0.0743 | 0.0878 | 0.104 | 0.123
in ethyl acetate | 0.0285 | 0.0323 | 0.0383 | 0.0453 | 0.055 | 0.0651 | 0.0764 | 0.0877 | 0.0979 | 0.11
in ethylene glycol | 0.0148 | 0.0175 | 0.0208 | 0.0245 | 0.0287 | 0.0337 | 0.0399 | 0.0473 | 0.0561 | 0.0664
in isobutanol | 0.00864 | 0.0106 | 0.0134 | 0.0169 | 0.0218 | 0.0271 | 0.033 | 0.0394 | 0.0465 | 0.0573
in isopropanol | 0.0154 | 0.0182 | 0.0216 | 0.0253 | 0.0302 | 0.035 | 0.0414 | 0.0482 | 0.0564 | 0.0665
in methanol | 0.0409 | 0.0455 | 0.0521 | 0.0584 | 0.0673 | 0.0769 | 0.0887 | 0.102 | 0.117 | 0.134
in n-butanol | 0.0168 | 0.0198 | 0.0233 | 0.0271 | 0.0323 | 0.0382 | 0.0451 | 0.0533 | 0.0618 | 0.0742
in n-propanol | 0.0181 | 0.0219 | 0.0263 | 0.0312 | 0.037 | 0.0441 | 0.0533 | 0.0637 | 0.0767 | 0.0934
in water | 5.33e-05 | 7.8e-05 | 0.000105 | 0.000141 | 0.000185 | 0.000248 | 0.000321 | 0.000426 | 0.000554 | 0.000727

From BigSolDB 2.1
